Experimental data: US5834452A, “1- or 6-hydroxylated steroids” (Roussel Uclaf, priority 1996, dated 1998)

Key:
[1] = tested on: endometrial proliferation (uterine lace); test: Progestomimetic activity: endometrial transformation in the rabbit (Clauberg-McPhail test); type: in vivo; parameters: key to Maximal activity on the uterine lace (McPhail index) / Average uterine lace (McPhail Index): McPhail scale 0–4 with 0.5 steps (endometrial proliferation); conditions: for Average uterine lace (McPhail Index): day 8 to day 11
Method: 2. --Determination of the progestomimetic activity of the products of the invention: Endometrial transformation in the rabbit. The animals used were impuberal female rabbits which were 40-45 days old. The animals were treated with estradiol (5 ug/0.2 ml/rabbit in solution of corn oil, 10% ethanol) by subcutaneous route from day 1 to day 5, then the product to be studied was administered from day 8 to day 11. On day 12, the animals were sacrificed and a median portion of each uterine cornua was removed from each animal and fixed in Bouin's liquid for histological study. After fixing, the samples were dehydrated, included, cut, mounted, the paraffin was removed and then the sample was stained with hemalum-eosin-saffron. […] Then, for each of the cornua, a semi-quantitative evaluation of the endometrial proliferation (uterine lace) was carried out by the McPhail scale from 0 to 4 with 0.5 intermediates and the two figures were averaged. Similarly, the degree of hypertrophy of the cornua was evaluated by the same scale. At higher magnification, morphological observations of the mucous membrane or the myometrium could possibly be formulated. The 1-OH metabolite (product A) was tested at doses of 10, 100, 1000 μg/kg by subcutaneous route as well as orally at a dose of 1000 μg/kg. The 6-OH metabolite (product B) was tested at doses of 100, 1000 and 10000 μg/kg subcutaneously. As a control, progesterone was administered at doses of 100 and 1000 μg/kg by subcutaneous route. The averages were produced for the uterine lace (McPhail Index).

[2] = molecular target: T1, Human progesterone receptor (HPR) (Homo sapiens, UniProt P06401); test: Relative bond affinity (RBA), recombinant human progestogen receptor, charcoal dextran technique; type: binding; conditions: relative to Trimegestone
T1 construct: made in house; host or cells: SF9 insect cells (ATCC CRL1711), baculovirus, lysate supernatant
T1 sequence (P06401 1-933): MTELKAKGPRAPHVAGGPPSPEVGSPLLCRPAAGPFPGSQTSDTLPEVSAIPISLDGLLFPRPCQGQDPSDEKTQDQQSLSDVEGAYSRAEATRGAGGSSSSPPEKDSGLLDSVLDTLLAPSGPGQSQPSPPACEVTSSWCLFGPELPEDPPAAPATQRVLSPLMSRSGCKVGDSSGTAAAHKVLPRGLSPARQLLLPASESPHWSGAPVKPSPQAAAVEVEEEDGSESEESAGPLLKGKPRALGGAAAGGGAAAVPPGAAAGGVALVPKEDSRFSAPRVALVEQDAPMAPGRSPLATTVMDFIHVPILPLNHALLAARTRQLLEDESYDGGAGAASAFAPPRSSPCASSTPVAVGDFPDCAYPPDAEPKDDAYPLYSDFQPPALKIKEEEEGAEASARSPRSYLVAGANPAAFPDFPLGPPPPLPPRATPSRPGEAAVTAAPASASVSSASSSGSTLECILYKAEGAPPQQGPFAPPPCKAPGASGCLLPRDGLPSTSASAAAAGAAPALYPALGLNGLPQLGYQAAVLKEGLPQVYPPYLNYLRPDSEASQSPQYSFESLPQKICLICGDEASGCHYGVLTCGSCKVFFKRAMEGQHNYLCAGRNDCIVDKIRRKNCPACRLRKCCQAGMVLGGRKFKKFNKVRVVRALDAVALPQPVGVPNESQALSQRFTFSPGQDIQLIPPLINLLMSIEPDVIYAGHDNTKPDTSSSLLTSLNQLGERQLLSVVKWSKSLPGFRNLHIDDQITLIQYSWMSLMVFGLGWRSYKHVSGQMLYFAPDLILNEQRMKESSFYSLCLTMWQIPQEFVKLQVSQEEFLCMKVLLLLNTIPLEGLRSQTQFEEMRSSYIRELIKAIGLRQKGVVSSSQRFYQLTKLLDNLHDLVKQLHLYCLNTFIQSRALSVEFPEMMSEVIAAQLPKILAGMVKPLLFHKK
From the text: The human recombinant receptor (HGR, HPR, HAR, HMR, HER) was used.
Human progesterone receptor (HPR):
The recombinant human progestogen receptor was obtained by the superexpression in a cell system of insects--Baculovirus, according to the methodology described by Webb et al (Journal of Methods in Cell and Molecular Biology, (1990) Vol. 2 No. 4, p. 173-188) and the application of which was described for the expression of human hormonal receptors, for example the human glucocorticoid receptor (Srinivasan et al, Molecular Endocrinology, (1990) Vol. 4 No. 2, p. 209-216.
The BaculoGold Transfection Kit (PharMingen, reference 21000K) was used to insert the cDNA fragment described by Kastner et al (The EMBO Journal, (1990), Vol. 9 No. 5, p. 1603-1614), containing the region coding for the human progestogen receptor and to prepare the corresponding recombinant virus. The recombinant virus obtained in this way was used to express the progestogen receptor in SF9 insect cells (ATCC CRL1711), according to the known methodology cited previously.
2×10^7 to 2.5×10^7 SF9 cells were cultured in a 175 ml "Falcon" flask in the TNM-FH medium supplemented with 10% fetal calf serum (FCS) and with 50 micrograms/ml of gentamycin. After infection, then incubation at 27° C. for 40 to 42 hours, the cells were taken up in 1 ml of lysis buffer (1), lysed by 2 cycles of freezing-thawing (-80° C./ 0° C.), then centrifuged at 4° C. for 30 minutes at 20,900 g. The supernatant, containing the recombinant human progestogen receptor, was stored in liquid nitrogen in quantities of 1 ml.
The supernatant was diluted at the time of use with 10 mM Tris buffer, 0.25M saccharose, HCl pH 7.4 containing 0.1% of gelatin and then incubated at 0° C. for 24 hours with a constant concentration (T) of tritiated 17α, 21-dimethyl-19-nor-Δ^4,9 pregnadiene-3,20-dione in the presence of increasing concentrations of either unlabelled progesterone (0-2500×10^-9 M), or the unlabelled product to be tested (1 to 25000×10^-9 M). The concentration of bound tritiated 17,21-dimethyl-19-nor-Δ^4,9 -pregnadiene-3,20-dione (B) was then measured in each incubate using the charcoal dextran adsorption technique.
Calculation of the relative bond affinity (RBA).
The following two curves were drawn: the percentage of bound tritiated hormone B/BO as a function of the logarithm of the concentration of unlabelled reference hormone or as a function of the logarithm of the concentration of unlabelled test product. The straight line of the following equation was determined: […]
The relative bond affinity (RBA) of the test product was determined by the equation: […]

| RBA for the human progestogen receptor, times weaker than that of Trimegestone [2] [times] | SMILES | Average uterine lace (McPhail Index) ([1]; rabbit, 0,01 mg/kg, s/c) | Average uterine lace (McPhail Index) ([1]; rabbit, 0,1 mg/kg, s/c) | Hypertrophy of the cornua ([1]; rabbit, 1 mg/kg p/o route versus s/c route) | Average uterine lace (McPhail Index) ([1]; rabbit, 1 mg/kg, per os) | Average uterine lace (McPhail Index) ([1]; rabbit, 1 mg/kg, s/c, 1 mg/kg) | Maximal activity on the uterine lace (McPhail index) ([1]; rabbit, 1000 μg/kg by subcutaneous route (note)) | Average uterine lace (McPhail Index) ([1]; rabbit, 1 mg/kg, s/c) |
| --- | --- | --- | --- | --- | --- | --- | --- | --- |
| 9 | C[C@H](O)C(=O)[C@@]1(C)CC[C@H]2[C@@H]3CCC4=CC(=O)C[C@H](O)C4=C3CC[C@@]21C [Product A, [1α, 17β-(S)]-1-hydroxy-17-(2-hydroxy-1-oxopropyl)-17-methyl-Δ^4,9-estradiene-3-one] | 3,8 | 3,8 | stronger hypertrophy of the cornua | 4 | 3,8 |  |  |
|  | CC(=O)[C@H]1CC[C@H]2[C@@H]3CCC4=CC(=O)CC[C@]4(C)[C@H]3CC[C@]12C [Progesterone, reference compound] |  | 1,8 |  |  |  | 4 | 3,8 |
